Experimental data reported in patent US11116778B2, “Prodrugs of ALOX-15 inhibitors and methods of using the same” (EMPIRICO INC., priority 2019, dated 2021).

Legend:
[1] = system: Human nasal epithelial primary cells (HNEpC); experiment: Levels of compound 5 and compound 3 in media of human nasal epithelial primary cells, LC-MS/MS; format: in vitro ADME; conditions: HNEpC treated with 5 μM or 1 μM compound 5
Protocol: Human nasal epithelial primary cells (HNEpC) (PromoCell GmbH, Heidelberg, Germany) were cultured according to the manufacturer in provided Primary Cell media in 24 well plates at a density of 25,000 cells per well. Cells were treated with 5 μM or 1 μM of compound 5 or vehicle only (water) in media containing 20 ng/mL IL-13 for 24 hours in a 37° C. cell culture incubator. The following day, media was replaced and fresh media containing 20 ng/mL IL-13 and compound 5 or vehicle was added to each well, then incubated again for 24 hours in a 37° C. cell culture incubator. The process was repeated once more for a 24-hour period.
To determine levels of arachidonic acid and linoleic acid metabolites after compound treatment, cell media was replaced with fresh Primary Cell media without IL-13. ALOX15 substrate (arachidonic acid or linoleic acid) was added to each well at a concentration of 1.5 μM and cells further incubated 37° C. for 1 hour. Media was collected from each well and quenched with an equal volume of LC/MS extraction buffer (methanol, 60 mM ascorbic acid, 0.1% acetic acid).
From the quenched media samples, compound 5 and compound 3 were also quantified. Compound 3 was quantified using LC-MS/MS (QTrap5500, Applied Biosystems). […] Compound 5 was quantified using LC-MS/MS (QTrap5500, Applied Biosystems). […]

[2] = system: ALOX15 mRNA; experiment: ALOX15 mRNA by RT-qPCR in rabbit nasal mucosa; format: in vivo; conditions: rostral and caudal regions; rabbits, compound 5 10 mM intranasal
Protocol: Six (6) female NZW rabbits were employed in this study. Rabbits were obtained from Covance (Denver Pa.). Rabbits were between approximately 10 and 12 months of age at the time of study start. At time point 0, all animals received 50 μL of solution containing rabbit IL4 (RND Systems/Biotechne) and human IL13 (PreproTech) at a concentration of 0.25 mg/mL each in 0.5×PBS containing 12.5 mg/mL BSA per nostril. This was administered intranasally via a venous catheter attached to a micropipette. The animal was positioned in a supine manner and the venous catheter inserted into the nostril. The volume was introduced into the nasal cavity and the same procedure was repeated with the other nostril. […]
Relative ALOX15 and POSTN mRNA levels in nasal mucosa were measured by RT-qPCR. […] The level of ALOX15 or POSTN mRNA from each sample was measured in triplicate by real-time qPCR on an Applied Biosystems 7500 Fast Real-Time PCR machine using the TaqMan Gene Expression Assay for rabbit ALOX15 (ThermoFisher, assay #Oc03823548_s1). The level of GAPDH mRNA was measured in biplex reactions using TaqMan Gene Expression Assay (ThermoFisher, assay #Oc03823402_g1) and used to determine relative ALOX15 mRNA levels in each well using the delta-delta Ct method. […] Relative POSTN mRNA levels were measured as above using TaqMan Gene Expression Assay specific for rabbit POSTN mRNA (ThermoFisher, assay #Oc06804808_s1). […]

O=C(Nc1ccc(F)cc1Cl)c1nn(COP(=O)(O)O)c(Cl)c1Cl [compound 5, (4,5-dichloro-3-((2-chloro-4-fluorophenyl)carbamoyl)-1H-pyrazol-1-yl)methyl dihydrogen phosphate]
conversion of compound 5 to compound 3 in quenched media samples (FIG. 6) [1]: majority of compound 5 was converted to compound 3 | relative level of ALOX15 mRNA in nasal mucosa versus vehicle (FIG. 11) [2]: lower
